These results are taken from paper PMC8945599, “VEGFA, B, C: Implications of the C-Terminal Sequence Variations for the Interaction with Neuropilins” (Biomolecules, 2022).

pKd: −log10 of the molar value. Where no end group is shown, it is not given here.

The target of one test is T1, NRP1-b1 (Homo sapiens, UniProt O14786).
T1 construct: 6-His-tag with TEV protease cleavage site (N); made in house; host or cells: Rosetta-gami2(DE3)pLysS E. coli
T1 sequence (O14786 275-424 limits assumed): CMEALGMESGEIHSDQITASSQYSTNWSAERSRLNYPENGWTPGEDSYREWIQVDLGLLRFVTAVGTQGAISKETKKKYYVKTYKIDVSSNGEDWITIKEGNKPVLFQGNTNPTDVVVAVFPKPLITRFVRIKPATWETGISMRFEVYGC
In words: Thermostability shift assay, NRP1-b1. To be noted: 5 µM protein, 1 mM ligand, 10X SYPRO Orange, LightCycler 480 II; average of four measurements. In kind it is binding. How it is done: Thermostability assays were performed on the LightCycler 480 II (Roche) with a final concentration of 5 µM protein, 1 mM ligand and 10X of SYPRO Orange, in DMSO (Thermo Fisher). Negative and positive control experiments were performed using the protein with buffer alone or the ligand without protein and the protein with a strongly binding ligand EG01377, respectively. Experiments were carried out in duplicates on two separate days for two different batches of protein preparations and the values in the table represent the averages from the four measurements.

Test [1] has as its target T2, NRP1-b1 (b1 domain of Neuropilin-1) (Homo sapiens, UniProt O14786).
T2 construct: 6-His-tag with TEV protease cleavage site (N); made in house; host or cells: Rosetta-gami2(DE3)pLysS E. coli
T2 sequence (O14786 275-424 limits assumed): T1 sequence (O14786 275-424 limits assumed)
Description: Surface plasmon resonance, peptide binding to immobilised NRP1-b1. The following applies: SPR, Biacore T200, protein immobilised on CM5 chip (1000 RU), peptide 64 µM to 0.125 µM, 20 mM Tris pH 7.9, 50 mM NaCl. An excerpt:
(§1) Proteins were expressed and purified as previously described. NRP1-b1 and NRP2-b1 were expressed in Rosetta-gami2(DE3)pLysS E.coli cells that were transformed with a pET-15b vector containing NRP1-b1 and NRP2-b1 sequences with an N-terminal 6-His-tag and a TEV protease cleavage site. After the cells were harvested by centrifugation and lysed by sonication, the proteins were purified from the filtered cell extract. Purification protocol, as described in Tsai et al. (2016), included a combination of nickel ion-affinity chromatography, size exclusion, and a final ion exchange chromatography step.
(§2) SPR was performed using the Biacore T200 Enhanced Sensitivity model (GE, Healthcare, UK). Protein was immobilised on a CM5 chip, following the manufacturer’s instructions until it reached 1000 response units (RU). SPR was run with a range of peptide concentrations from 64 µM to 0.125 µM, in a buffer of 20 mM Tris pH 7.9, 50 mM NaCl. Biacore T200 evaluation software was used for data analysis.
On the technique in general: In SPR one partner is held on a chip, and binding of the other changes the refractive index at the surface.

The target of test [2] is T3, NRP2-b1 (b1 domain of Neuropilin-2) (Homo sapiens, UniProt O60462).
T3 construct: 6-His-tag with TEV protease cleavage site (N); made in house; host or cells: Rosetta-gami2(DE3)pLysS E. coli
T3 sequence (O60462 277-427 limits assumed): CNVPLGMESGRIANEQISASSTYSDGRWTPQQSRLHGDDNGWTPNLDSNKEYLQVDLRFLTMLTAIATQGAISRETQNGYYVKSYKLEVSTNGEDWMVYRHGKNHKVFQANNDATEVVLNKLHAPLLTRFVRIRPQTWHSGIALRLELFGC
In words: Surface plasmon resonance, peptide binding to immobilised NRP2-b1. To be noted: SPR, Biacore T200, protein immobilised on CM5 chip (1000 RU), peptide 64 µM to 0.125 µM, 20 mM Tris pH 7.9, 50 mM NaCl.
Description: as §1, §2

As usually defined, the pKd is the Kd on a negative log10 scale, so that one unit is a factor of ten.

Take Ac-AAAAR [Con, reference compound]: the “shift in Tm (ΔTm) of NRP1-b1” value on NRP1-b1 is 3.0 ± 0.2 °C. For the same substance, the figures for the negative logarithm of the Kd (pKd) in test [1] and in test [2] were 4.48 and 4.04, respectively.
On to Ac-DKPRR [A165], for which, on NRP1-b1, the “shift in Tm (ΔTm) of NRP1-b1” value is 3.5 ± 0.2 °C. In addition, the results for the pKd in test [1] and in test [2] were 5.10 and 4.51, respectively.
Regarding Ac-RKLRR [B167], the pKd is 5.39 in test [1] and 4.89 in test [2].
Take Ac-RPQPR [B186]: on NRP1-b1, the “shift in Tm (ΔTm) of NRP1-b1” value was found to be 3.6 ± 0.2 °C. Moreover, the pKd in test [1] is 5.00; in test [2], 4.61.
On to Ac-SIIRR [C], for which the “shift in Tm (ΔTm) of NRP1-b1” value on NRP1-b1 was determined as 2.0 ± 0.3 °C. The pKd was 4.48 in test [1] and 4.57 in test [2].
